Measured values taken from ChEMBL document CHEMBL1157535, “2-Aminobenzophenones as a novel class of bradykinin B1 receptor antagonists” (J Med Chem, 2008).

Experiments:
human MDR1 (P-gp) = assay: (§1) Apparent permeability in pig LLC-PK1 cells transfected with human MDR1; assay type: ADME, cell-based, Sus scrofa; details: LLC-PK1
Canis familiaris = species: Canis familiaris; details: dog, in vivo, iv, 0.25 mg/kg
Plasma [1] = assay: Drug level in transgenic rat plasma at 0.12 mg/kg, iv; assay type: ADME, organism-based; design: dose 0.12 mg/kg, route intravenous; details: in vivo
Brain [2] = assay: Drug level in transgenic rat brain at 0.12 mg/kg, iv; assay type: ADME, organism-based; design: dose 0.12 mg/kg, route intravenous; details: in vivo
Spinal cord [3] = assay: Drug level in transgenic rat spinal cord at 0.12 mg/kg, iv; assay type: ADME, organism-based; design: dose 0.12 mg/kg, route intravenous; details: in vivo
Plasma [4] = assay: Drug level in transgenic rat plasma at 1.2 mg/kg, iv; assay type: ADME, organism-based; design: dose 1.2 mg/kg, route intravenous; details: in vivo
Brain [5] = assay: Drug level in transgenic rat brain at 1.2 mg/kg, iv; assay type: ADME, organism-based; design: dose 1.2 mg/kg, route intravenous; details: in vivo
Spinal cord [6] = assay: Drug level in transgenic rat spinal cord at 1.2 mg/kg, iv; assay type: ADME, organism-based; design: dose 1.2 mg/kg, route intravenous; details: in vivo
Plasma [7] = assay: Drug level in transgenic rat plasma at 12 mg/kg, iv; assay type: ADME, organism-based; design: dose 12 mg/kg, route intravenous; details: in vivo
Brain [8] = assay: Drug level in transgenic rat brain at 12 mg/kg, iv; assay type: ADME, organism-based; design: dose 12 mg/kg, route intravenous; details: in vivo
Spinal cord [9] = assay: Drug level in transgenic rat spinal cord at 12 mg/kg, iv; assay type: ADME, organism-based; design: dose 12 mg/kg, route intravenous; details: in vivo
Rattus norvegicus [10] = species: Rattus norvegicus; details: in vivo
in vivo [11] = details: Sprague-Dawley, rat, po, 10 mg/kg, F
in vivo [12] = details: Sprague-Dawley, rat, iv, 2 mg/kg
in vivo [13] = details: mongrel, dog, iv, 0.25 mg/kg, CL
in vivo [14] = details: mongrel, dog, iv, 0.25 mg/kg, t1/2
Rattus norvegicus [15] = species: Rattus norvegicus; details: in vivo, po, 10 mg/kg
in vivo [16] = details: Sprague-Dawley, rat, t1/2
LLC-PK1 = assay: as §1; assay type: ADME, cell-based, Sus scrofa; details: llc-pk1
[17] = Metabolic stability in Beagle dog liver microsomes after 30 mins; assay type: ADME, Canis lupus familiaris, Microsome; details: read-out: Stability
[18] = Metabolic stability in human liver microsomes after 30 mins; assay type: ADME, Microsome; details: read-out: Stability
[19] = Metabolic stability in monkey liver microsomes after 30 mins; assay type: ADME, Macaca mulatta, Microsome; details: rhesus monkey, read-out: Stability
[20] = Metabolic stability in Sprague-Dawley rat liver microsomes after 30 mins; assay type: ADME, Microsome; details: read-out: Stability

Row | Compound | Papp (human MDR1 (P-gp)) [×10⁻⁶ cm/s] | t1/2 (Canis familiaris) [h] | t1/2 (Rattus norvegicus [10]) [h] | bioavailability (in vivo [11]) [%] | clearance (in vivo [12]) [mL/min/kg] | clearance (in vivo [13]) [mL/min/kg] | half-life (in vivo [14]) [h] | half-life (in vivo [16]) [h] | also measured
1 | O=C(Nc1ccc(S(=O)(=O)Nc2ccccc2C(=O)c2ccc(F)cn2)cc1)OCC1CCCO1 (stereo in doubt; 30) | 26 | 1.8 |  |  |  |  |  |  | 
2 | O=C(Nc1ccc(S(=O)(=O)Nc2ccccc2C(=O)c2ccccc2)cc1)OCC1CCCO1 (stereo not drawn) | 26 |  | 9.7 | 3 | 43 | 17 | 1.9 |  | concentration (Plasma [1]): 80 nM; concentration (Brain [2]): 70 nM; concentration (Spinal cord [3]): 97 nM; concentration (Plasma [4]): 995 nM; concentration (Brain [5]): 438 nM; concentration (Spinal cord [6]): 597 nM; concentration (Plasma [7]): 13200 nM; concentration (Brain [8]): 5840 nM; concentration (Spinal cord [9]): 9430 nM
3 | O=C(NCCCN1CCCCC1)Nc1ccc(S(=O)(=O)Nc2ccccc2C(=O)c2ccccc2)cc1 | 34 |  | 14 | 41 | 29 | 17 | 1.5 |  | 
4 | O=C(Nc1ccc(S(=O)(=O)Nc2ccccc2C(=O)c2ccccn2)cc1)OCC1CCCO1 (stereo in doubt; 29) | 33 |  |  |  | 40 | 2.9 | 2.2 | 1.7 | F (Rattus norvegicus [15]): 3%
5 | O=C(Nc1ccc(S(=O)(=O)Nc2ccccc2C(=O)c2ccccn2)cc1)OCC1CCCO1 (stereo in doubt; 28) |  | 2.6 |  |  |  |  |  |  | 
6 | O=C(Nc1ccc(S(=O)(=O)Nc2ccccc2C(=O)c2ccc(F)cn2)cc1)OCC1CCCO1 (stereo in doubt; 32) |  |  |  | < 1 | 26 |  | 2.8 | 1.1 | 
7 | O=C(Nc1ccc(S(=O)(=O)Nc2ccccc2C(=O)c2ccccn2)cc1)OCC1CCCO1 (racemic) |  | 1.4 | 1.4 |  |  |  |  |  | Papp (LLC-PK1): 31 ×10⁻⁶ cm/s; F (Rattus norvegicus [15]): 17%
8 | CC(=O)Nc1ccc(S(=O)(=O)Nc2ccccc2C(=O)c2ccccc2)cc1 | 27 |  | 0.3 | 3 | 26 | 7.5 | 0.5 |  | remaining at 0.5 h [17]: < 10%; remaining at 0.5 h [18]: < 10%; remaining at 0.5 h [19]: < 10%; remaining at 0.5 h [20]: < 10%
9 | CC(=O)Nc1ccc(S(=O)(=O)Nc2ccccc2C(=O)c2ccccn2)cc1 |  |  |  | 11 | 24 | 1.2 | 1.2 | 1.2 | 
